In patent publication US12559502B2, “Thieno pyrimidines as ferroportin inhibitors” (Global Blood Therapeutics, Inc., priority 2020, dated 2026) one finds pEC50 data, which are given here for 18 compounds.

The target of the test is T1, human ferroportin (Homo sapiens, UniProt Q9NP59).
T1 construct: expressed in transfected cells; host or cells: CHO cells, stably transfected, doxycycline-inducible
T1 sequence (Q9NP59 1-571): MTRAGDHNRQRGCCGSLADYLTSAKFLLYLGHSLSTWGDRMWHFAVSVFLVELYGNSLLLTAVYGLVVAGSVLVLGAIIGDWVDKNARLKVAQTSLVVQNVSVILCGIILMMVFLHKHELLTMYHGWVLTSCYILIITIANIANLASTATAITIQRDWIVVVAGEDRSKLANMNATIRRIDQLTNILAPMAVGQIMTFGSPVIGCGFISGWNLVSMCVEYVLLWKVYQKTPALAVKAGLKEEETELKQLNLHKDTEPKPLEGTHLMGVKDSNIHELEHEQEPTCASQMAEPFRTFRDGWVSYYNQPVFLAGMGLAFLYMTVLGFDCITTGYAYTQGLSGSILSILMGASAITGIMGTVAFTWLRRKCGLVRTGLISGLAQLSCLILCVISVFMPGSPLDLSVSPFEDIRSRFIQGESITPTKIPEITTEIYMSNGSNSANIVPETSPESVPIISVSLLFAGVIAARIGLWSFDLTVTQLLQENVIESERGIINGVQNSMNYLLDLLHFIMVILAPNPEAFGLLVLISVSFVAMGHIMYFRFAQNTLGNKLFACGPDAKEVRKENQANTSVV
The experiment in a line: In-vitro ferroportin internalization assay (luciferase reporter). Format: cell-based. The settings on record: average pEC50; stably-transfected CHO cell line expressing human ferroportin tagged to a luciferase reporter; 6 h incubation with test compound; luciferase activity (Nano-Glo). The protocol: The protocol for this assay is generally as described in WO2018/128828, incorporated herein by reference in its entirety. Functional internalization of ferroportin protein was measured using a stably-transfected CHO cell line expressing the human ferroportin tagged to a luciferase reporter. Cells were plated for 24 h in the presence of ferric ammonium citrate (FAC). Ferroportin protein expression was induced with doxycycline for 24 h. The next day, the compounds were added. Test compounds were dissolved in DMSO. Cells were incubated with the test compounds for 6 h, and subsequently luciferase activity was measured using the Nano-Glo Luciferase Assay System and Glomax (Promega, Madison, WI).
The average pEC50 was determined for the test compounds.
On the technique in general: Reporter assays use an easily measured gene product as a stand-in for the process of interest.
For orientation: pEC50 means the negative decadic logarithm of the EC50, by convention in mol/L. The low end stands for a large EC50, the high end for a small EC50. The compound `COc1ccnc(-c2nc(N(C)CC(=O)Nc3ccc(OC)nc3)c3ccsc3n2)c1` [Compound 7, 2-{[2-(4-methoxypyridin-2-yl)thieno[2,3-d]pyrimidin-4-yl](methyl)amino}-N-(6-methoxypyridin-3-yl)acetamide] displayed a pEC50 of 6.6.

As to `COc1cccc(NC(=O)CN(C)c2nc(-c3cc(OCCO)ccn3)nc3sc(C)c(C)c23)c1` [Compound 8, 2-({2-[4-(2-hydroxyethoxy)pyridin-2-yl]-5,6-dimethylthieno[2,3-d]pyrimidin-4-yl}(methyl)amino)-N-(3-methoxyphenyl)acetamide], the pEC50 turned out to be 7.8.

Compound `Cc1sc2nc(-c3cc(OCCO)ccn3)nc(N(C)CC(=O)Nc3cccc(F)c3)c2c1C` [Compound 9, N-(3-fluorophenyl)-2-({2-[4-(2-hydroxyethoxy)pyridin-2-yl]-5,6-dimethylthieno[2,3-d]pyrimidin-4-yl}(methyl)amino)acetamide] showed a pEC50 of 7.7.

As for `Cc1ccc(NC(=O)CN(C)c2nc(-c3cc(OCCO)ccn3)nc3sc(C)c(C)c23)cn1` [Compound 10, 2-({2-[4-(2-hydroxyethoxy)pyridin-2-yl]-5,6-dimethylthieno[2,3-d]pyrimidin-4-yl}(methyl)amino)-N-(6-methylpyridin-3-yl)acetamide], the pEC50 was 7.6.

`COc1ccc(NC(=O)CN(C)c2nc(-c3cc(OCCO)ccn3)nc3sc(C)c(C)c23)cn1` [Compound 11, 2-([2-[4-(2-hydroxyethoxy)pyridin-2-yl]-5,6-dimethylthieno[2,3-d]pyrimidin-4-yl](methyl)amino)-N-(6-methoxypyridin-3-yl)acetamide] came in with a pEC50 of 7.5.

In turn, `Cc1ccc(NC(=O)CN(C)c2nc(-c3cn(C)cn3)nc3sc(C)c(C)c23)cn1` [Compound 12, 2-{[5,6-dimethyl-2-(1-methyl-1H-imidazol-4-yl)thieno[2,3-d]pyrimidin-4-yl](methyl)amino}-N-(6-methylpyridin-3-yl)acetamide] registered a pEC50 of 7.1.

On to `COc1ccc(NC(=O)CN(C)c2nc(-c3cn(C)cn3)nc3sc(C)c(C)c23)cn1` [Compound 13, 2-{[5,6-dimethyl-2-(1-methyl-1H-imidazol-4-yl)thieno[2,3-d]pyrimidin-4-yl](methyl)amino}-N-(6-methoxypyridin-3-yl)acetamide], for which the negative-log EC50 (pEC50) is 7.1.

Consider `Cc1sc2nc(-c3cn(C)cn3)nc(N(C)CC(=O)NC(C)(C)C)c2c1C` [Compound 14, N-tert-butyl-2-{[5,6-dimethyl-2-(1-methyl-1H-imidazol-4-yl)thieno[2,3-d]pyrimidin-4-yl](methyl)amino}acetamide], for which the pEC50 came to 7.

In the case of `Cc1sc2nc(-c3cc(OCCO)ccn3)nc(N(C)CC(=O)NC(C)(C)C)c2c1C` [Compound 15, N-tert-butyl-2-({2-[4-(2-hydroxyethoxy)pyridin-2-yl]-5,6-dimethylthieno[2,3-d]pyrimidin-4-yl}(methyl)amino)acetamide], the pEC50 worked out at 7.8.

Compound `COc1ccc(NC(=O)CN(C)c2nc(-c3cc(OCCO)ccn3)nc3sc(C)cc23)cn1` [Compound 16, 2-({2-[4-(2-hydroxyethoxy)pyridin-2-yl]-6-methylthieno[2,3-d]pyrimidin-4-yl}(methyl)amino)-N-(6-methoxypyridin-3-yl)acetamide] yielded a pEC50 of 7.6.

On to `COc1ccc(NC(=O)CN(C)c2nc(-c3cc(OCCO)ccn3)nc3scc(C)c23)cn1` [Compound 17, 2-({2-[4-(2-hydroxyethoxy)pyridin-2-yl]-5-methylthieno[2,3-d]pyrimidin-4-yl}(methyl)amino)-N-(6-methoxypyridin-3-yl)acetamide], for which the pEC50 amounted to 7.7.

With `Cc1sc2nc(-c3cc(OCCN(C)C)ccn3)nc(N(C)CC(=O)NC(C)(C)C)c2c1C` [Compound 18, N-tert-butyl-2-[(2-{4-[2-(dimethylamino)ethoxy]pyridin-2-yl}-5,6-dimethylthieno[2,3-d]pyrimidin-4-yl)(methyl)amino]acetamide], the pEC50 was determined as 7.8.

On to `Cc1sc2nc(-c3cc(O[C@@H]4CCN(C)C4)ccn3)nc(N(C)CC(=O)NC(C)(C)C)c2c1C` [Compound 19, N-tert-butyl-2-{[5,6-dimethyl-2-(4-{[(3R)-1-methylpyrrolidin-3-yl]oxy}pyridin-2-yl)thieno[2,3-d]pyrimidin-4-yl](methyl)amino}acetamide], for which the pEC50 is 7.6.

Compound `Cc1sc2nc(-c3cc(OCCN4CCOCC4)ccn3)nc(N(C)CC(=O)NC(C)(C)C)c2c1C` [Compound 20, N-tert-butyl-2-[(5,6-dimethyl-2-{4-[2-(morpholin-4-yl)ethoxy]pyridin-2-yl}thieno[2,3-d]pyrimidin-4-yl)(methyl)amino]acetamide] came in with a pEC50 of 8.

On to `Cc1sc2nc(-c3cc(OCCN4CCN(C)CC4)ccn3)nc(N(C)CC(=O)NC(C)(C)C)c2c1C` [Compound 21, N-tert-butyl-2-[(5,6-dimethyl-2-{4-[2-(4-methylpiperazin-1-yl)ethoxy]pyridin-2-yl}thieno[2,3-d]pyrimidin-4-yl)(methyl)amino]acetamide], for which the pEC50 is on record as 7.8.

`Cc1sc2nc(-c3cc(OCCN(C)C)ccn3)nc(N(C)CC(=O)NC3(C(F)(F)F)CC3)c2c1C` [Compound 22, 2-[(2-{4-[2-(dimethylamino)ethoxy]pyridin-2-yl}-5,6-dimethylthieno[2,3-d]pyrimidin-4-yl)(methyl)amino]-N-[1-(trifluoromethyl)cyclopropyl]acetamide]: the pEC50 came out at 7.5.

The compound `Cc1sc2nc(-c3cc(OCCN4C[C@@H]5C[C@H]4CO5)ccn3)nc(N(C)CC(=O)NC(C)(C)C)c2c1C` [Compound 23, N-tert-butyl-2-{[5,6-dimethyl-2-(4-{2-[(1S,4S)-2-oxa-5-azabicyclo[2.2.1]heptan-5-yl]ethoxy}pyridin-2-yl)thieno[2,3-d]pyrimidin-4-yl](methyl)amino}acetamide] returned a pEC50 of 8.2.

Turning to `Cc1sc2nc(-c3cc(OCCn4ccnc4)ccn3)nc(N(C)CC(=O)NC(C)(C)C)c2c1C` [Compound 24, N-tert-butyl-2-[(2-{4-[2-(1H-imidazol-1-yl)ethoxy]pyridin-2-yl}-5,6-dimethylthieno[2,3-d]pyrimidin-4-yl)(methyl)amino]acetamide], the negative-log EC50 (pEC50) is recorded as 8.
